Test results: patent US12110293B2, “Substituted triazolo quinoxaline derivatives” (GRÜNENTHAL GMBH, priority 2018, dated 2024)

Each compound was assayed against T1, glucocorticoid receptor (Homo sapiens, UniProt P04150) (assay: Agonistic mode of action on the glucocorticoid receptor (CHO-Gal4/GR luciferase reporter cell line)). Conditions: range class observed in the agonistic assay or the antagonistic assay (CHO-Gal4/GR reporter cells); table does not say which mode applies per example.
T1 construct: expressed in transfected cells
T1 sequence (P04150 524-758 limits assumed): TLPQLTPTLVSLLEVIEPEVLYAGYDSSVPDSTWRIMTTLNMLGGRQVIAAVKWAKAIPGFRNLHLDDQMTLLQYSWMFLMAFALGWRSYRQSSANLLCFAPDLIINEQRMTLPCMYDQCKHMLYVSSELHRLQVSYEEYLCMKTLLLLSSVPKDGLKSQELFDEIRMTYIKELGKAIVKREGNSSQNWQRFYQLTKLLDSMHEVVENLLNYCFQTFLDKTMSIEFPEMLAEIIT
Assay type: cell-based
Summary of the method: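 CHO cells stably carrying GAL4 DBD–GR ligand-binding-domain fusion and GAL4-UAS firefly luciferase reporter, 5000 cells/well grown 24 h, then compounds added in Opti-MEM at 8 half-log concentrations from 10 μM to 0.003 μM (0.5% DMSO), quadruplicates. Agonist-induced luminescence read on FLIPR Tetra; EC50 calculated.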
With `COc1c(-c2cc(F)cc3c2ccn3S(C)(=O)=O)c(F)cc2c1-n1c(C)nnc1C(C)(C)N2` [Example 250, 7-Fluoro-8-(6-fluoro-1-methylsulfonyl-1H-indol-4-yl)-9-methoxy-1,4,4-trimethyl-5H-[1,2,4]triazolo[4,3-a]quinoxaline] the IC50 or EC50 (agonist or antagonist mode not specified) was less than 100 nM.
`Cc1c[nH]c2c(-c3c(OC(F)F)cc4c(c3F)-n3c(C)nnc3C(C)(C)N4)cc(F)cc12` [Example 267, 7-(Difluoro-methoxy)-9-fluoro-8-(5-fluoro-3-methyl-1H-indol-7-yl)-1,4,4-trimethyl-5H-[1,2,4]triazolo[4,3-a]quinoxaline] was tested, and the IC50 or EC50 (agonist or antagonist mode not specified) was 100 to 1000 nM.
`Cc1nnc2n1-c1c(cc(OC(F)F)c(-c3cccc4[nH]c(C(F)(F)F)cc34)c1F)NC2(C)C` [Example 252, 7-(Difluoro-methoxy)-9-fluoro-1,4,4-trimethyl-8-[2-(trifluoromethyl)-1H-indol-4-yl]-5H-[1,2,4]triazolo[4,3-a]quinoxaline] was tested, and the IC50 or EC50 (agonist or antagonist mode not specified) was 100 to 1000 nM.
For `Cc1nnc2n1-c1c(cc(OC(F)F)c(-c3cccc4c3ccn4CC(F)F)c1F)NC2(C)C` [Example 393, 8-[1-(2,2-Difluoro-ethyl)-1H-indol-4-yl]-7-(difluoro-methoxy)-9-fluoro-1,4,4-trimethyl-5H-[1,2,4]triazolo [4,3-a]quinoxaline], the IC50 or EC50 (agonist or antagonist mode not specified) was 1000 to 15000 nM.
`Cc1c(-c2cccc3c(C)n[nH]c23)c(Cl)cc2c1-n1c(C)nnc1C(C)(C)N2` [Example 368, 7-Chloro-1,4,4,9-tetramethyl-8-(3-methyl-1H-indazol-7-yl)-5H-[1,2,4]triazolo[4,3-a]quinoxaline] was tested, and the IC50 or EC50 (agonist or antagonist mode not specified) was 100 to 1000 nM.
For `Cc1nnc2n1-c1c(cc(F)c(-c3ccc(F)c4[nH]ccc34)c1C(F)(F)F)NC2(C)C` [Example 505, 7-Fluoro-8-(7-fluoro-1H-indol-4-yl)-1,4,4-trimethyl-9-(trifluoromethyl)-5H-[1,2,4]triazolo[4,3-a]quinoxaline], the IC50 or EC50 (agonist or antagonist mode not specified) was 100 to 1000 nM.
With `Cc1nnc2n1-c1c(cc(F)c(-c3cccc4c3ccn4S(=O)(=O)CC3CC3)c1F)NC2(C)C` [Example 210, 8-[1-(Cyclopropyl-methylsulfonyl)-1H-indol-4-yl]-7,9-difluoro-1,4,4-trimethyl-5H-[1,2,4]triazolo[4,3-a]quinoxaline] the IC50 or EC50 (agonist or antagonist mode not specified) was less than 100 nM.
`Cc1nnc2n1-c1c(cc(F)c(-c3cc(F)cc4c3ccn4S(C)(=O)=O)c1C(F)F)NC2(C)C` [Example 390, 9-(Difluoro-methyl)-7-fluoro-8-(6-fluoro-1-methylsulfonyl-1H-indol-4-yl)-1,4,4-trimethyl-5H-[1,2,4]triazolo[4,3-a]quinoxaline] was tested, and the IC50 or EC50 (agonist or antagonist mode not specified) was less than 100 nM.
Work on `Cc1c(-c2cc(F)cc3c(C)c[nH]c23)ccc2c1-n1c(C)nnc1C(C)(C)N2` [Example 452, 8-(5-Fluoro-3-methyl-1H-indol-7-yl)-1,4,4,9-tetramethyl-5H-[1,2,4]triazolo[4,3-a]quinoxaline] yielded an IC50 or EC50 (agonist or antagonist mode not specified) of less than 100 nM.
In the case of `CCc1c(-c2cc(F)cc3c(C)c[nH]c23)c(F)cc2c1-n1c(C)nnc1C(C)(C)N2` [Example 47, 9-Ethyl-7-fluoro-8-(5-fluoro-3-methyl-1H-indol-7-yl)-1,4,4-trimethyl-5H-[1,2,4]triazolo[4,3-a]quinoxaline], the IC50 or EC50 (agonist or antagonist mode not specified) is reported as less than 100 nM.
In the case of `COCCn1ncc2c(-c3c(OC(F)(F)F)cc4c(c3C)-n3c(C)nnc3C(C)(C)N4)cc(F)cc21` [Example 480, 8-[6-Fluoro-1-(2-methoxy-ethyl)-1H-indazol-4-yl]-1,4,4,9-tetramethyl-7-(trifluoromethyloxy)-5H-[1,2,4]triazolo[4,3-a]quinoxaline], the IC50 or EC50 (agonist or antagonist mode not specified) is reported as 100 to 1000 nM.
Work on `COc1cc2c(c(C(F)(F)F)c1-c1cc(F)cc3c(C)c[nH]c13)-n1c(C)nnc1C(C)(C)N2` [Example 407, 8-(5-Fluoro-3-methyl-1H-indol-7-yl)-7-methoxy-1,4,4-trimethyl-9-(trifluoromethyl)-5H-[1,2,4]triazolo[4,3-a]quinoxaline] yielded an IC50 or EC50 (agonist or antagonist mode not specified) of less than 100 nM.
`Cc1c(-c2cc(F)cc3c2ccn3CCO)c(OC(F)(F)F)cc2c1-n1c(C)nnc1C(C)(C)N2` [Example 471, 2-[6-Fluoro-4-[1,4,4,9-tetramethyl-7-(trifluoromethyloxy)-5H-[1,2,4]triazolo[4,3-a]quinoxalin-8-yl]-1H-indol-1-yl]-ethanol] was tested, and the IC50 or EC50 (agonist or antagonist mode not specified) was 100 to 1000 nM.
In the case of `CC#Cc1c[nH]c2c(-c3c(F)cc4c(c3F)-n3c(CC)nnc3C(C)(C)N4)cc(F)cc12` [Example 16, 1-ethyl-7,9-difluoro-8-(5-fluoro-3-(prop-1-yn-1-yl)-1H-indol-7-yl)-4,4-dimethyl-4,5-dihydro-[1,2,4]triazolo[4,3-a]quinoxaline], the IC50 or EC50 (agonist or antagonist mode not specified) is reported as 100 to 1000 nM.
`Cc1nnc2n1-c1c(cc(F)c(-c3ccc(C#N)c4[nH]ccc34)c1C(F)(F)F)NC2(C)C` [Example 531, 4-[7-Fluoro-1,4,4-trimethyl-9-(trifluoromethyl)-5H-[1,2,4]triazolo[4,3-a]quinoxalin-8-yl]-1H-indole-7-carbonitrile] showed an IC50 or EC50 (agonist or antagonist mode not specified) of 100 to 1000 nM.
For `Cc1cc2c(c(C)c1-c1cc(F)cc3c1ccn3S(C)(=O)=O)-n1c(C)nnc1C(C)(C)N2` [Example 328, 8-(6-Fluoro-1-methylsulfonyl-1H-indol-4-yl)-1,4,4,7,9-pentamethyl-5H-[1,2,4]triazolo[4,3-a]quinoxaline], the IC50 or EC50 (agonist or antagonist mode not specified) was 100 to 1000 nM.
`COc1cc2c(c(C(F)(F)F)c1-c1cccc3c1ccn3C1CC1)-n1c(C)nnc1C(C)(C)N2` [Example 523, 8-(1-Cyclopropyl-1H-indol-4-yl)-7-methoxy-1,4,4-trimethyl-9-(trifluoromethyl)-5H-[1,2,4]triazolo[4,3-a]quinoxaline] was tested, and the IC50 or EC50 (agonist or antagonist mode not specified) was 100 to 1000 nM.
`Cc1cc(-c2c(F)cc3c(c2C(F)(F)F)-n2c(C)nnc2C(C)(C)N3)c2ccn(S(C)(=O)=O)c2c1` [Example 476, 7-Fluoro-1,4,4-trimethyl-8-(6-methyl-1-methylsulfonyl-1H-indol-4-yl)-9-(trifluoromethyl)-5H-[1,2,4]triazolo [4,3-a]quinoxaline] gave an IC50 or EC50 (agonist or antagonist mode not specified) of 100 to 1000 nM.
In the case of `Cc1nnc2n1-c1c(cc(F)c(-c3cc(F)cc4c3ccn4C)c1C(F)(F)F)NC2(C)C` [Example 532, 7-Fluoro-8-(6-fluoro-1-methyl-1H-indol-4-yl)-1,4,4-trimethyl-9-(trifluoromethyl)-5H-[1,2,4] triazolo[4,3-a]quinoxaline], the IC50 or EC50 (agonist or antagonist mode not specified) is reported as less than 100 nM.
`Cc1c[nH]c2c(-c3c(F)cc4c(c3F)-n3c(Cc5ccccc5)nnc3C(C)(C)N4)cc(F)cc12` [Example 67, 1-Benzyl-7,9-difluoro-8-(5-fluoro-3-methyl-1H-indol-7-yl)-4,4-dimethyl-5H-[1,2,4]triazolo[4,3-a]quinoxaline] showed an IC50 or EC50 (agonist or antagonist mode not specified) of 1000 to 15000 nM.
`CCn1cc2c(-c3c(F)cc4c(c3F)-n3c(C)nnc3C(C)(C)N4)cccc2n1` [Example 237, 8-(2-Ethyl-2H-indazol-4-yl)-7,9-difluoro-1,4,4-trimethyl-5H-[1,2,4]triazolo[4,3-a]quinoxaline] gave an IC50 or EC50 (agonist or antagonist mode not specified) of 1000 to 15000 nM.
`COCCn1ccc2c(-c3c(F)cc4c(c3C(F)F)-n3c(C)nnc3C(C)(C)N4)cc(F)cc21` [Example 402, 9-(Difluoro-methyl)-7-fluoro-8-[6-fluoro-1-(2-methoxy-ethyl)-1H-indol-4-yl]-1,4,4-trimethyl-5H-[1,2,4]triazolo[4,3-a]quinoxaline] gave an IC50 or EC50 (agonist or antagonist mode not specified) of 100 to 1000 nM.
`Cc1nnc2n1-c1c(cc(OC(F)F)c(-c3cccc4c3ccn4S(C)(=O)=O)c1F)NC2(C)C` [Example 275, 7-(Difluoro-methoxy)-9-fluoro-1,4,4-trimethyl-8-(1-methylsulfonyl-1H-indol-4-yl)-5H-[1,2,4]triazolo[4,3-a]quinoxaline] was tested, and the IC50 or EC50 (agonist or antagonist mode not specified) was 1000 to 15000 nM.
In the case of `Cc1nnc2n1-c1c(cc(F)c(-c3cccc4nn(C)cc34)c1F)NC2(C)C` [Example 222, 7,9-Difluoro-1,4,4-trimethyl-8-(2-methyl-2H-indazol-4-yl)-5H-[1,2,4]triazolo[4,3-a]quinoxaline], the IC50 or EC50 (agonist or antagonist mode not specified) is reported as 1000 to 15000 nM.
With `COc1cc2c(c(F)c1-c1cc(F)cc3c1ccn3S(C)(=O)=O)-n1c(C)nnc1C(C)(C)N2` [Example 255, 9-Fluoro-8-(6-fluoro-1-methylsulfonyl-1H-indol-4-yl)-7-methoxy-1,4,4-trimethyl-5H-[1,2,4]triazolo[4,3-a]quinoxaline] the IC50 or EC50 (agonist or antagonist mode not specified) was 1000 to 15000 nM.
With `Cc1c[nH]c2c(-c3c(Cl)cc4c(c3F)-n3c(C)nnc3C(C)(C)N4)cc(F)cc12` [Example 290, 7-Chloro-9-fluoro-8-(5-fluoro-3-methyl-1H-indol-7-yl)-1,4,4-trimethyl-5H-[1,2,4]triazolo[4,3-a]quinoxaline] the IC50 or EC50 (agonist or antagonist mode not specified) was 100 to 1000 nM.
`COCCn1ccc2c(-c3c(C(F)F)cc4c(c3F)-n3c(C)nnc3C(C)(C)N4)cccc21` [Example 295, 7-(Difluoro-methyl)-9-fluoro-8-[1-(2-methoxy-ethyl)-1H-indol-4-yl]-1,4,4-trimethyl-5H-[1,2,4]triazolo[4,3-a]quinoxaline] gave an IC50 or EC50 (agonist or antagonist mode not specified) of 1000 to 15000 nM.
`Cc1nnc2n1-c1c(cc(F)c(-c3cccc4[nH]ccc34)c1C(F)(F)F)NC2(C)C` [Example 467, 7-Fluoro-8-(1H-indol-4-yl)-1,4,4-trimethyl-9-(trifluoromethyl)-5H-[1,2,4]triazolo[4,3-a]quinoxaline] showed an IC50 or EC50 (agonist or antagonist mode not specified) of less than 100 nM.
Compound `Cc1cc2c(c(F)c1-c1cc(F)cc3c(C)c[nH]c13)-n1c(C)nnc1C(C)(C)N2` [Example 364, 9-Fluoro-8-(5-fluoro-3-methyl-1H-indol-7-yl)-1,4,4,7-tetramethyl-5H-[1,2,4]triazolo[4,3-a]quinoxaline] has an IC50 or EC50 (agonist or antagonist mode not specified) of 100 to 1000 nM.
